Source: US8476196B2, “Control of harmful algal blooms by induction of programmed cell death” (University of South Florida, priority 2009, dated 2013)

Tests used:
[1] = tested on: Karenia brevis (Piney Island A2); assay: K. brevis culture treatment, intact cell counts (light microscope / FlowCam); type: cell-based; conditions: 20 μM final concentration, higher-density cultures, T=2 days, two replicates
[2] = tested on: Karenia brevis (Piney Island A2); assay: as above; type: cell-based; conditions: for cell appearance in FlowCam images: 100 μM final concentration, treated flasks
Description: The present inventors have determined that NO may be used to trigger cell death in Karenia brevis and potentially other harmful algae. The response to low concentrations occurs within 24 hours and varies with concentration. To describe the dose response, cultures of K. brevis (Piney Island A2) were exposed to varied concentrations of the nitric oxide donor diethylamine NONOate sodium salt hydrate or DEA NONOate (IUPAC name: sodium N-(diethylamino)-N-oxidonitrous amide).
Work described by Chung et al. (2008) employed 500 μM DEA NO to elicit ScDSP-1 expression in Skeletonema costatum. The present inventors sought to determine the low end of the dose response, if any effect, in K. brevis. Trials therefore tested the effect of DEA NONOate concentrations ranging from 100 μM to 0.1 μM. For each trial, K. brevis cultures were grown in L1 media. Cultures were diluted 1:1 from a stock flask into a total volume of 125 mL in 250-mL acid washed and autoclaved flasks. Cultures were allowed to recover for 2-4 days prior to treatment. Immediately prior to treatment, DEA NONOate (Sigma-Aldrich, St. Louis, Mo.) was dissolved from its powdered form in sterile nuclease-free water. The solution was made to a concentration of 1 mg mL^−1. Two trials were performed to delineate responses to different concentrations of NO. In each case, the appropriate volume of DEA NONO solution was added and the cultured swirled by hand gently to mix the solution. Control flasks were also used for each trial; these received only an aliquot of the water used for dissolving DEA NONOate, equal to the largest volume administered to treatment flasks for that trial. At the concentration of 1 mg mL^−1, volumes of DEA NONO solution added ranged from 1.9 mL to 1.9 μL for 100 μM to 0.1 μM final concentrations in culture flasks. Three replicate flasks were used for each concentration and negative controls. Prior to treatment and at each sampling point after treatment, 5 mL of culture were removed for counting. A 1 mL aliquot was imaged/counted on the FlowCam flow-through microscope and the remainder was stained with Lugol's iodine solution and counted by light microscope on a gridded Sedgewick counting slide (1 mm^2 grid size). For slide counting, 50-70 grid squares were counted for each sample. Although counts were obtained for most samples by FlowCam and light microscopy, the light microscope counts were used for recording quantitative data while FlowCam images were used as a record of cell appearances.

[3] = tested on: ScDSP-1; conditions: Skeletonema costatum; cited from earlier work
[4] = tested on: caspase-like activity; assay: Caspase-like activity in K. brevis, summary statements; type: cell-based, Karenia brevis
Description: (§1) Since caspase activity is a hallmark of PCD, experiments were conducted to examine caspase-like enzyme activity in K. brevis. The activity of enzymes that are similar to caspase-3 and caspase-8 were examined. The assays use a commercially available kit (MBL International, Woburn, Mass.) to measure the protease activity specific to certain amino acid sequence motifs. A short time series was performed to measure upregulation of caspase-like activity due to exposure to NO. NO was produced from the compound DEA-NONOate (use of this is previously described herein). […] Based on these findings, there is at least a 2-3 fold up-regulation of caspase-like activity due to NO exposure at 50-100 micromolar. This provides evidence that K. brevis death due to NO exposure is mediated by PCD pathways in the cells. This activity appears rapidly (within 20 minutes), and can decline rapidly (by 120 minutes). The decline is presumably due to actual death of the cells, since at the 120 minute mark, many cells were already in the process of lysis when viewed microscopically.

[5] = tested on: caspase 8; assay: Colorimetric caspase-like enzyme activity in K. brevis, caspase 8; type: cell-based, Karenia brevis
Description: as §1

[6] = tested on: caspase 3; assay: Colorimetric caspase-like enzyme activity in K. brevis, caspase 3; type: cell-based, Karenia brevis
Description: as §1

[7] = tested on: caspase-like activity; conditions: pretreatment before supplementation of NO donors; cited from earlier work
[8] = Experiment 1, 100 uM NO, 60 min
[9] = Experiment 1, 100 uM NO, 120 min

With `CCN(CC)N([O-])N=O.[Na+]` [DEA NONOate, sodium N-(diethylamino)-N-oxidonitrous amide, reference compound] the “decrease of average intact cell count from pre-treatment counts” value [1] was 98.6%, the “cell appearance in FlowCam images” value [2] was “all particles imaged by the FlowCam resembled the disrupted cells” and the “cell appearance in FlowCam images” value ([2]; listed as DEA NONO) was “disrupted”. The intact cells present ([2]; 100 μM, 1 day post-treatment) was “no intact cells were observed” and the intact cells present ([2]; 100 μM, 2 days post-treatment) was “no intact cells were observed”.
In the case of `CC(C)C[C@H](NC(=O)[C@H]1O[C@@H]1C(=O)O)C(=O)NCCCCN=C(N)N` [E-64, L-transepoxysuccinyl-leucylamido-[4-guanidino]butane, reference compound], the “protection against NO-induced mortality” value ([2]; E-64 10 μM added with 20 μM NO) is reported as “no protection”.
For `[N]=O` [NO, nitric oxide], the “expression of a death specific protein” value [3] is listed as “induce expression of a death specific protein”, the “time by which caspase-like activity can decline” value ([4]; NO exposure) is listed as ≤ 120 min and the “time in which caspase-like activity appears” value ([4]; NO exposure) is listed as ≤ 20 min. The “up-regulation of caspase-like activity” value ([4]; NO exposure at 50-100 micromolar) was 2-3 fold, the “Absorbance of colorimetric caspase cleavage product, caspase 8” value (from here on “Absorbance … caspase 8”) [5, 8] was 0.017 and the “Upregulation vs. control (fold), caspase 8” value [5, 8] was 2.4 fold. For the same molecule, the “Absorbance … caspase 8” value [5, 9] was 0.006, the “Upregulation vs. control (fold), caspase 8” value [5, 9] was 0.9 fold and the “Absorbance … caspase 8” value ([5]; Experiment 2, 50 uM NO, 20 min) was 0.021. For the same molecule, the “Upregulation vs. control (fold), caspase 8” value ([5]; Experiment 2, 50 uM NO, 20 min) was 2.1 fold, the “Absorbance … caspase 8” value ([5]; Experiment 2, 50 uM NO, 40 min) was 0.019 and the “Upregulation vs. control (fold), caspase 8” value ([5]; Experiment 2, 50 uM NO, 40 min) was 1.9 fold. For the same molecule, the “Absorbance … caspase 8” value ([5]; Experiment 2, 50 uM NO, 60 min) was 0.018, the “Upregulation vs. control (fold), caspase 8” value ([5]; Experiment 2, 50 uM NO, 60 min) was 1.8 fold and the “Absorbance of colorimetric caspase cleavage product, caspase 3” value (“Absorbance … caspase 3” for short) [6, 8] was 0.014. For the same molecule, the “Upregulation vs. control (fold), caspase 3” value [6, 8] was 14 fold, the “Absorbance … caspase 3” value [6, 9] was 0.001 and the “Upregulation vs. control (fold), caspase 3” value [6, 9] was 1 fold. The “Absorbance … caspase 3” value ([6]; Experiment 2, 50 uM NO, 20 min) was 0.016, the “Upregulation vs. control (fold), caspase 3” value ([6]; Experiment 2, 50 uM NO, 20 min) was 2.7 fold and the “Absorbance … caspase 3” value ([6]; Experiment 2, 50 uM NO, 40 min) was 0.016. For the same molecule, the “Upregulation vs. control (fold), caspase 3” value ([6]; Experiment 2, 50 uM NO, 40 min) was 2.7 fold, the “Absorbance … caspase 3” value ([6]; Experiment 2, 50 uM NO, 60 min) was 0.013 and the “Upregulation vs. control (fold), caspase 3” value ([6]; Experiment 2, 50 uM NO, 60 min) was 2.2 fold. The “cell counts of surviving cells (recovery)” value ([2]; 10 μM, T=5 days) was “increased to greater than pre-treatment numbers”, the intact cells present ([2]; 100 μM, 1 day post-treatment) was “no intact cells were present” and the cell death ([2]; 100 μM, 24 hours) was “complete cell death”. For the same molecule, the intact cells present ([2]; 100 μM, 2 days post-treatment) was “no intact cells were present”, the mortality at 10 µM ([2]; Karenia brevis, 10 μM, second trial (FIG. 3), read-out: mortality / reduction of intact cells from pre-treatment numbers) was ~50% and the mortality at 20 µM ([2]; Karenia brevis, 20 μM NO (FIG. 4)) was ~50%. For the same molecule, the “time in which response to low concentrations occurs” value ([2]; low concentrations) was ≤ 24 h and the “effect on intact cell numbers” value ([2]; lower concentrations, 1 μM or less (0.1 μM, 1 μM)) was “no effect”.
For Ac-DEVD-CHO, the “effect on increase in caspase-like activity” value [7] is listed as “prevented increase in caspase-like activity”.
